What was measured:
Type in all cases: in vivo
Details in all cases: Rate 1000 g/ha; evaluated after 13 days
Avena fatua (AVEFA) [1] = experiment: B2 post-emergence herbicidal activity
Description: (§1) Seeds of a variety of test species were sown in standard soil in pots: Triticum aestivium (TRZAW), Oryza sativa (ORYSA), Avena fatua (AVEFA), Alopecurus myosuroides (ALOMY), Echinochloa crus-galli (ECHCG), Lolium perenne (LOLPE). After 8 days cultivation (post-emergence) under controlled conditions in a glasshouse (at 24/16° C., day/night; 14 hours light; 65% humidity), the plants were sprayed with an aqueous spray solution derived from the formulation of the technical active ingredient in acetone/water (50:50) solution containing 0.5% Tween 20 (polyoxyethelyene sorbitan monolaurate, CAS RN 9005-64-5). The test plants were then grown in a glasshouse under controlled conditions (at 24/16° C., day/night; 14 hours light; 65% humidity) and watered twice daily. After 13 days, the test was evaluated (5=total damage to plant; 0=no damage to plant).

[2] = test system: Alopecurus myosuroides (ALOMY); experiment: B2 post-emergence herbicidal activity
Description: as §1

[3] = test system: Echinochloa crus-galli (ECHCG); experiment: B2 post-emergence herbicidal activity
Description: as §1

[4] = test system: Triticum aestivium (TRZAW); experiment: B2 post-emergence herbicidal activity
Description: as §1

Lolium perenne (LOLPE) [5] = experiment: B2 post-emergence herbicidal activity
Description: as §1

Oryza sativa (ORYSA) [6] = experiment: B2 post-emergence herbicidal activity
Description: as §1

Avena fatua (AVEFA) [7] = experiment: B1 pre-emergence herbicidal activity
Description: as §1, with “After” for “After 8 days”, “for one day (pre-emergence)” for “(post-emergence)”

[8] = test system: Alopecurus myosuroides (ALOMY); experiment: B1 pre-emergence herbicidal activity
Description: as §1, with “After” for “After 8 days”, “for one day (pre-emergence)” for “(post-emergence)”

[9] = test system: Echinochloa crus-galli (ECHCG); experiment: B1 pre-emergence herbicidal activity
Description: as §1, with “After” for “After 8 days”, “for one day (pre-emergence)” for “(post-emergence)”

[10] = test system: Triticum aestivium (TRZAW); experiment: B1 pre-emergence herbicidal activity
Description: as §1, with “After” for “After 8 days”, “for one day (pre-emergence)” for “(post-emergence)”

Lolium perenne (LOLPE) [11] = experiment: B1 pre-emergence herbicidal activity
Description: as §1, with “After” for “After 8 days”, “for one day (pre-emergence)” for “(post-emergence)”

Oryza sativa (ORYSA) [12] = experiment: B1 pre-emergence herbicidal activity
Description: as §1, with “After” for “After 8 days”, “for one day (pre-emergence)” for “(post-emergence)”

| SMILES | Control of AVEFA after post-emergence application (damage score 0-5) (Avena fatua (AVEFA) [1]) | Control of ALOMY after post-emergence application (damage score 0-5) [2] | Control of ECHCG after post-emergence application (damage score 0-5) [3] | Control of TRZAW after post-emergence application (damage score 0-5) [4] | Control of LOLPE after post-emergence application (damage score 0-5) (Lolium perenne (LOLPE) [5]) | Control of ORYSA after post-emergence application (damage score 0-5) (Oryza sativa (ORYSA) [6]) | Control of AVEFA after pre-emergence application (damage score 0-5) (Avena fatua (AVEFA) [7]) | Control of ALOMY after pre-emergence application (damage score 0-5) [8] | Control of ECHCG after pre-emergence application (damage score 0-5) [9] | Control of TRZAW after pre-emergence application (damage score 0-5) [10] | Control of LOLPE after pre-emergence application (damage score 0-5) (Lolium perenne (LOLPE) [11]) | Control of ORYSA after pre-emergence application (damage score 0-5) (Oryza sativa (ORYSA) [12]) |
| --- | --- | --- | --- | --- | --- | --- | --- | --- | --- | --- | --- | --- |
| CN(C(=O)NC(C)(C)C)c1cn(-c2cncc(F)c2)nc1C(F)(F)F [Compound A19] | 1 | 1 | 4 | 0 | 1 | 0 | 0 | 0 | 2 | 0 | 1 | 0 |
| COC(=O)N(C)c1cn(-c2cncc(F)c2)nc1C(F)(F)F [Compound A27] | 3 | 0 | 4 | 1 | 2 | 1 | 0 | 0 | 2 | 0 | 0 | 0 |
| CN(C(=O)OC(C)(C)C)c1c(Cl)c(-c2cccnc2)nn1C [Compound A39] | 1 | 2 | 4 | 0 | 3 | 1 | 4 | 0 | 3 | 0 | 0 | 1 |
| Cc1nn(-c2cncnc2)cc1N(C)C(=O)NC1CCCCC1 [Compound A44] | 3 | 1 | 1 | 0 | 2 | 0 | 1 | 0 | 1 | 1 | 1 | 1 |
| CN(C(=O)Oc1ccccc1)c1cn(-c2cncc(F)c2)nc1C(F)(F)F [Compound A46] | 2 | 0 | 2 | 0 | 1 | 0 | 0 | 0 | 0 | 0 | 0 | 0 |
| CCOC(=O)N(C)c1cn(-c2cncc(F)c2)nc1C(F)(F)F [Compound A47] | 2 | 1 | 4 | 1 | 0 | 0 | 0 | 0 | 1 | 0 | 0 | 0 |
| CN(C(=O)OC(C)(C)C)c1cn(-c2cncc(F)c2)nc1C(F)(F)F [Compound A48] | 3 | 1 | 4 | 1 | 2 | 1 | 0 | 1 | 3 | 1 | 1 | 1 |
| CN(C(=O)N(C)C(C)(C)C)c1cn(-c2cncnc2)nc1C(F)(F)F [Compound A51] | 2 | 1 | 2 | 2 | 1 | 0 | 0 | 0 | 1 | 0 | 0 | 1 |
| Cc1nn(-c2cncnc2)cc1N(C)C(=O)Nc1ccc(C#N)cc1 [Compound A52] | 0 | 0 | 0 | 0 | 0 | 0 | 0 | 0 | 0 | 0 | 0 | 0 |

Reference: US10905123B2, “Herbicidal compounds” (Syngenta Participations AG, priority 2015, dated 2021)
